# Source: ChEMBL document CHEMBL1201862, “PubChem BioAssay data set” (2004)
# Calls of active or inactive are those of the source. No stated cut-off is given here; in the data, actives have a measured IC50 and inactives only a lower limit.
# Target: Envelope glycoprotein gp160 (Human immunodeficiency virus 1, UniProt Q6QLK5)
# Assay: inhibitors of HIV fusion peptide binding, primary screen, biochemical, uHTS, fluorescence dequenching (AID 1986)
# Chain of Envelope glycoprotein gp160 (Q6QLK5 whole entry, the tested form may be a part): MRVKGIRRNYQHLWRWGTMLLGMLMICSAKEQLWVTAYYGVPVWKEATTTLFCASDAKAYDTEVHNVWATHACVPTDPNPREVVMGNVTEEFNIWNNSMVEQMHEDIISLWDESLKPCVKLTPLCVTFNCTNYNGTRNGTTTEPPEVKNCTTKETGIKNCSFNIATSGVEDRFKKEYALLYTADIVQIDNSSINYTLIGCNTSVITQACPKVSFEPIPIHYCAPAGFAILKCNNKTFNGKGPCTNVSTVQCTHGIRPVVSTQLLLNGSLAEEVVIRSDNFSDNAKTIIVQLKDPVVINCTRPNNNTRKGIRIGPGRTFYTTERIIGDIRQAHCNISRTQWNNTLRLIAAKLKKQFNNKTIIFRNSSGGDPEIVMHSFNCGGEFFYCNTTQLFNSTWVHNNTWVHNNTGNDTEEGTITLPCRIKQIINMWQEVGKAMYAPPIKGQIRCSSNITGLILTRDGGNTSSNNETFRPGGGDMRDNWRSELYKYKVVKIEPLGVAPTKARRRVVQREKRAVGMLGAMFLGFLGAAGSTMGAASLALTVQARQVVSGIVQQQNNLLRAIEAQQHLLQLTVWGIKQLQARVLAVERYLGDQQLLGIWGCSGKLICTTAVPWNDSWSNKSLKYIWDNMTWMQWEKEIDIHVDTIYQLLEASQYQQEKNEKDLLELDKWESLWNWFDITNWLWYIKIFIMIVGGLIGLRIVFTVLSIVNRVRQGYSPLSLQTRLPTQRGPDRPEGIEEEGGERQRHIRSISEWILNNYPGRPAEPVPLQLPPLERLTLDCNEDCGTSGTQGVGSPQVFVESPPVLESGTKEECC
row,Compound,IC50
1,CCc1nnc(NS(=O)(=O)c2ccc(NC(=S)NC(=O)/C=C/c3ccc(C(C)C)cc3)cc2)s1,12.1 µM (active)
2,O=C(O)c1ccc(N/N=C/c2ccc(-c3cccc(Cl)c3)o2)cc1,22.2 µM (active)
3,CCOc1cc(/C=N/Nc2cccc(C(=O)O)c2)ccc1OC(=O)c1ccccc1,23.4 µM (active)
